Reference: patent US8394799B2, “Compounds that inhibit HIF-1 activity, the method for preparation thereof and the pharmaceutical composition containing them as an effective component” (Korea Research Institute of Bioscience and Biotechnology, priority 2006, dated 2013)

Experiments:
[1] = system: HIF-1; assay: Assay of IC50, AGS cells (HRE-luciferase transfected); format: cell-based; conditions: Homo sapiens
Excerpt: (§1) Six tandem repeats of HRE (hypoxia Responsive Element 5′-ACGTG-3′), which is present in a human VEGF gene, was inserted into the multi-cloning region of a pGL3-basic vector (Promega) containing a luciferase gene as a reporter gene to produce a recombinant pGL3-HRE-luciferase vector which was then used to assay the compounds prepared in the above Examples for inhibition activity against HIF-mediated transcriptional activity.

[2] = system: HIF-1; assay: Assay of IC50, Hep3B cells (HRE-luciferase transfected); format: cell-based; conditions: Homo sapiens
Excerpt: as §1

[3] = system: HIF-1; assay: HRE reporter assay, HIF activity % remaining, AGS cells; format: cell-based, human; conditions: summary in words of the data of Table 1 and Table 2; cell line not stated
Excerpt: as §1
The hepatocellular carcinoma cell line HepG2 or Hep3B, both available from ATCC (American Type Culture Collection), and the gastric carcinoma cell line AGS, available from ATCC, were grown at 70% confluency in culture dishes and co-transfected with an internal control vector (pRL-CMV, Promega) and the recombinant pGL3-HRE-luciferase vector using Lipofectamine Plus Reagent (Invitrogen). HepG2 and AGS cells were treated with the compound of Chemical Formula 1A while Hep3B and AGS cells were treated with the compound of Chemical Formula 1B. The compound of Chemical Formula 1A was used in a concentration of 10 μm for HepG2 or AGS cells. The compound of Chemical Formula 1B was used in a concentration of 30 μM for Hep3B and in a concentration of 10 μM for AGS cells. […] The compounds prepared in Examples above were assayed for inhibition activity against HIF-1 by measuring the activity of the luciferase, induced in hypoxia, using a Dual-luciferase reporter assay system (Promoga). In this regard, the luciferase activity was measured for 10 sec using a Microlumat Plus luminometer (EG&G Berthold). In the meanwhile, the renilla luciferase activity from the control vector PRL-CMV (Promega) was measured to normalize the data obtained.
On the basis of the renilla luciferase activity, the HIF activity % remaining after treatment with the compounds was corrected.

[4] = system: HIF-1; assay: Assay of IC50, SK-Hep-1 cells (same manner); format: cell-based; conditions: Homo sapiens, SK-HEP1; SK-Hep-1 cell line, compounds 0.01 to 100 μM for 16 hrs
Excerpt: as §1

[5] = system: metastatic breast carcinoma cell line MDA-MB-435; assay: In vivo anticancer activity in nude mice implanted with MDA-MB-435; conditions: for inhibition of the growth of the cancer cells compared to the control: once a day, MDA-MB-435 in nude mice
Excerpt: Female nude mice 5-6 weeks old (Crj:BALB/c nu/nu, Charles River) were bred in germ-free breeding rooms maintained at constant temperature and humidity. The nude mice were anesthetized before incision of the chest skin. The metastatic breast carcinoma cell line MDA-MB-435, obtained from DR D. R. Welch, Univ. Alabama, was implanted at a count of 10^6 cells/mouse into the mammary gland fat pad, and the incisions were then closed with surgical clips. The nude mice were divided into test groups and a control group, each consisting of 6 mice. […] For the control group, Solution A alone was used at a dose of 100 μl once a day. Thereafter, tumor volumes and body weights were measured once a week. Tumor volumes were calculated according to the following Mathematic Formula 1. Tumor Volume (mm^3)=(Length of Long Axis,mm)×(Length of Short Axis,mm)^2×0.5 <Mathematic Formula 1>

COC(=O)c1cccc(NC(=O)COc2ccc(C34CC5CC(CC(C5)C3)C4)cc2)c1 [Example 2, 3-[2-(4-Adaman-1-yl-phenoxy)-acetylamino]-benzoic acid methyl ester]
IC50 [1]: 7.4 µM | IC50 [2]: 9.9 µM

NC(=O)c1cccc(NC(=O)COc2ccc(C34CC5CC(CC(C5)C3)C4)cc2)c1 [Example 23, 3-[2-(4-Adamantan-1-yl-phenoxy)acetyl-amino]-benzamide]
IC50 [1]: 1 µM | IC50 [2]: 4.3 µM | inhibition activity against the transcription mediated by HIF-1, induced in hypoxia [3]: excellent inhibition activity

CC(C)(C)c1ccc(OCC(=O)Nc2cccc(C(N)=O)c2)cc1 [Example 30, 3-[2-(4-tert-butyl-phenoxy)-acetyl-amino]-benzamide]
IC50 [1]: > 30 µM | IC50 [2]: > 30 µM

Cc1ccc(OCC(=O)Nc2cccc(C(N)=O)c2)cc1 [Example 31, 3-(2-p-tolyloxy-acetyl-amino)-benzamide]
IC50 [1]: > 30 µM | IC50 [2]: > 30 µM

NC(=O)c1cccc(NC(=O)COc2ccc([N+](=O)[O-])cc2)c1 [Example 32, 3-[2-(4-nitro-phenoxy)-acetyl-amino)benzamide]
IC50 [1]: > 30 µM | IC50 [2]: > 30 µM

O=C(COc1ccc(C23CC4CC(CC(C4)C2)C3)cc1)Nc1cc(C(=O)O)ccc1O [Example 48, 3-[2-(4-Adamantan-1-yl-phenoxy)-acetylamino]-4-hydroxy-benzoic acid]
IC50 [1]: 0.35 µM | IC50 [2]: 0.4 µM | inhibition activity against the transcription mediated by HIF-1, induced in hypoxia [3]: excellent inhibition activity

O=C(COc1ccc(F)cc1)Nc1cccc(C(=O)O)c1 [Example 51, 3-[2-(4-fluoro-phenoxy)acetylamino]-benzoic acid]
IC50 [1]: > 30 µM | IC50 [2]: > 30 µM

O=C(COc1ccc(Cl)cc1)Nc1cccc(C(=O)O)c1 [Example 52, 3-[2-(4-chloro-phenoxy)-acetylamino]-benzoic acid]
IC50 [1]: 10 µM | IC50 [2]: > 30 µM

O=C(COc1ccc(Br)cc1)Nc1cccc(C(=O)O)c1 [Example 57, 3-[2-(4-bromo-phenoxy)-acetylamino]-benzoic acid]
IC50 [1]: 1.6 µM | IC50 [2]: > 30 µM

O=C(COc1ccc(I)cc1)Nc1cccc(C(=O)O)c1 [Example 58, 3-[2-(4-iodo-phenoxy)-acetylamino]-benzoic acid]
IC50 [1]: 3.5 µM | IC50 [2]: 7.2 µM

CC(=O)c1ccc(OCC(=O)Nc2cccc(C(=O)O)c2)cc1 [Example 60, 3-[2-(4-acetyl-phenoxy)-acetylamino]-benzoic acid]
IC50 [1]: > 30 µM | IC50 [2]: > 30 µM

NC(=O)c1ccc(O)c(NC(=O)COc2ccc(C34CC5CC(CC(C5)C3)C4)cc2)c1 [Example 65, 3-[2-(4-adamantan-1-yl-phenoxy)-acetylamino]-4-hydroxy-benzamide]
IC50 [1]: 1.5 µM | IC50 [2]: > 30 µM

CN(C)C(=O)c1ccc(O)c(NC(=O)COc2ccc(C34CC5CC(CC(C5)C3)C4)cc2)c1 [Example 66, 3-[2-(4-adamantan-1-yl-phenoxy)-acetylamino]-4-hydroxy-N,N-dimethyl-benzamide]
IC50 [1]: > 30 µM | IC50 [2]: > 30 µM

O=C(COc1ccc(C23CC4CC(CC(C4)C2)C3)cc1)Nc1cc(C(=O)NCc2ccco2)ccc1O [Example 67, 3-[2-(4-adamantan-1-yl-phenoxy)-acetylamino]-N-furan-2-ylmethyl-4-hydroxy-benzamide]
IC50 [1]: 5.9 µM | IC50 [2]: 12.6 µM

CN(C)CCNC(=O)c1ccc(O)c(NC(=O)COc2ccc(C34CC5CC(CC(C5)C3)C4)cc2)c1 [Example 68, 3-[2-(4-adamantan-1-yl-phenoxy)-acetylamino]-N-(2-dimethylamino-ethyl)-4-hydroxy-benzamide]
IC50 [1]: 3 µM | IC50 [2]: 51.7 µM

O=C(COc1ccc(C23CC4CC(CC(C4)C2)C3)cc1)Nc1cc(C(=O)NCCCN2CCOCC2)ccc1O [Example 69]
IC50 [1]: > 30 µM | IC50 [2]: > 30 µM

O=C(COc1ccc(C23CC4CC(CC(C4)C2)C3)cc1)Nc1cccc(C(=O)Nc2ccc(Cl)cc2)c1 [Example 70, 3-[2-(4-adamantan-1-ylphenoxy)-acetylamino]-N-(4-chloro-phenyl)-benzamide]
IC50 [1]: 9.5 µM | IC50 [2]: > 30 µM

O=C(COc1ccc(C23CC4CC(CC(C4)C2)C3)cc1)Nc1cccc(C(=O)Nc2ccc3ccccc3c2)c1 [Example 72, 3-[2-(4-adamantan-1-yl-phenoxy)-acetylamino]-N-naphtalene-2-yl-benzamide]
IC50 [1]: > 30 µM | IC50 [2]: > 30 µM

O=C(COc1ccc(C23CC4CC(CC(C4)C2)C3)cc1)Nc1cccc(C(=O)NCc2ccco2)c1 [Example 73]
IC50 [1]: 2 µM | IC50 [2]: 14.1 µM

O=C(COc1ccc(C23CC4CC(CC(C4)C2)C3)cc1)Nc1cccc(C(=O)NCCc2ccncc2)c1 [Example 74]
IC50 [1]: 3.1 µM | IC50 [2]: 8.2 µM

O=C(COc1ccc(Cl)cc1Cl)Nc1cccc(C(=O)NCc2ccco2)c1 [Example 77, 3-[2-(2,4-dichloro-phenoxy)-acetylamino]-N-furan-2-ylmethyl-benzamide]
IC50 [1]: 35 µM | IC50 [2]: > 30 µM

O=C(COc1ccc(Cl)cc1Cl)Nc1cc(C(=O)NCc2ccco2)ccc1O [Example 78, 3-[2-(2,4-dichloro-phenoxy)-acetylamino]-N-fan-2-ylmethyl-4-hydroxy-benzamide]
IC50 [1]: > 30 µM | IC50 [2]: 23.2 µM

COC(=O)c1ccnc(NC(=O)COc2ccc(C34CC5CC(CC(C5)C3)C4)cc2)c1 [Example 86, 2-[2-(4-adamantan-1-yl-phenoxy)acetylamino]-isonicotinic acid methyl ester]
IC50 [1]: 2 µM | IC50 [2]: 1.2 µM | IC50 [4]: 1.03 µM

COC(=O)c1cncc(NC(=O)COc2ccc(C34CC5CC(CC(C5)C3)C4)cc2)c1 [Example 87, 5-[2-(4-adamantan-1-yl-phenoxy)acetylamino]-nicotinic acid methyl ester]
IC50 [1]: 5 µM | IC50 [2]: 5.9 µM | IC50 [4]: > 30 µM

O=C(COc1ccc(Cl)cc1Cl)Nc1cc(C(=O)O)ccn1 [Example 95, 2-[2-(2,4-dichloro-phenoxy)-acetylamino]-isonicotinic acid]
inhibition of the growth of the cancer cells compared to the control ([5]; 20 mg/kg): 4.3% | deaths in six mice of each group ([5]; 50 mg/kg): No dead were observed | inhibition of the growth of the cancer cells compared to the control ([5]; 50 mg/kg): 36.5%

O=C(COc1ccc(C23CC4CC(CC(C4)C2)C3)cc1)Nc1cc(C(=O)O)ccn1 [Example 98, 2-[2-(4-adamantan-1-yl-phenoxy)acetylamino]-isonicotinic acid]
IC50 [2]: 1.03 µM | IC50 [4]: 2 µM

O=C(COc1ccc(C23CC4CC(CC(C4)C2)C3)cc1)Nc1cncc(C(=O)NCCc2ccncc2)c1 [Example 102, 5-[2-(4-adamantan-1-yl-phenoxy)acetylamino]-N-(2-pyridine-4-yl-ethyl)nicotinamide]
IC50 [4]: > 30 µM

O=C(COc1ccc(C23CC4CC(CC(C4)C2)C3)cc1)Nc1cncc(C(=O)NCCCn2ccnc2)c1 [Example 103, 5-[2-(4-adamantan-1-yl-phenoxy)-acetylamino]-N-(3-imidazole-1-yl-propyl)nicotinamide]
IC50 [4]: 1.9 µM

O=C(COc1ccc(C23CC4CC(CC(C4)C2)C3)cc1)Nc1cc(C(=O)Nc2ccc(Cl)cc2)ccn1 [Example 104, 2-[2-(4-adamantan-1-yl-phenoxy)-acetylamino]-N-(4-chloro-phenyl)-isonicotinamide]
IC50 [4]: 2.5 µM

O=C(COc1ccc(C23CC4CC(CC(C4)C2)C3)cc1)Nc1cc(C(=O)NCc2ccco2)ccn1 [Example 105, 2-[2-(4-adamantan-1-yl-phenoxy)-acetylamino]-N-furan-2-ylmethyl-isonicotinamide]
IC50 [4]: > 30 µM

O=C(COc1ccc(C23CC4CC(CC(C4)C2)C3)cc1)Nc1cc(C(=O)NCCc2ccncc2)ccn1 [Example 106, 2-[2-(4-adamantan-1-yl-phenoxy)-acetylamino]-N-(2-pyridine-4-yl-ethyl)-isonicotinamide]
IC50 [4]: 3.4 µM

O=C(COc1ccc(C23CC4CC(CC(C4)C2)C3)cc1)Nc1cc(C(=O)NCCCn2ccnc2)ccn1 [Example 107, 2-[2-(4-adamantan-1-yl-phenoxy)-acetylamino]-N-(3-imidazole-1-yl-propyl)-isonicotinamide]
IC50 [4]: < 1 µM

NC(=O)c1cncc(NC(=O)COc2ccc(C34CC5CC(CC(C5)C3)C4)cc2)c1 [Example 112, 5-[2-(4-adamantan-1-yl-phenoxy)acetylamino]-nicotinamide]
IC50 [4]: 11.9 µM
